Measurements: ChEMBL document CHEMBL4219148, “Discovery of a highly potent orally bioavailable imidazo-[1, 2-a]pyrazine Aurora inhibitor” (Bioorg Med Chem Lett, 2018)

Key:
Aurora kinase B [1] = target: T1, Aurora kinase B (Homo sapiens, UniProt Q96GD4); assay: Inhibition of Aurora B (unknown origin) using Tamra-PKAtide as substrate by fluorescence polarization assay
Aurora kinase B [2] = target: T1, Aurora kinase B; assay: Inhibition of Aurora B in human HCT116 cells assessed as reduction in phosphorylation of Histone H3 at Ser10 residue incubated for 1 hr by Hoechst 33342 dye-based immunofluorescence microscopic method; type: cell-based
Aurora kinase A = target: T2, Aurora kinase A (Homo sapiens, UniProt O14965); assay: Inhibition of Aurora A (unknown origin) using Tamra-PKAtide as substrate by fluorescence polarization assay
T2 sequence (O14965 whole entry): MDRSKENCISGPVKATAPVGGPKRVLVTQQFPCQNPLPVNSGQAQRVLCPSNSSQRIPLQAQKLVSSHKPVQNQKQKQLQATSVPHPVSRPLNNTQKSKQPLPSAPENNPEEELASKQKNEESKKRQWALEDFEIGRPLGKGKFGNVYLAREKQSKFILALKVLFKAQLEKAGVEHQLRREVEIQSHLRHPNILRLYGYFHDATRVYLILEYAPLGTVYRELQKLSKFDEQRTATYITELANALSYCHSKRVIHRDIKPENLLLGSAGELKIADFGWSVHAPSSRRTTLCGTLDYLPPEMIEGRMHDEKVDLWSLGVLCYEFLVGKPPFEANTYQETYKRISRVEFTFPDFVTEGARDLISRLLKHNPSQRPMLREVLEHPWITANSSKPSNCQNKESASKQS

[3] = AUC (0 to 6 hrs) in rat at 10 mg/kg, po; type: ADME, organism-based; parameters: time < 6 hr, dose 10 mg/kg, route oral; settings: in vivo
[4] = Apparent permeability from apical to basolateral side in human intestinal Caco2 cells; type: ADME, cell-based; settings: Caco-2
[5] = AUC (0 to 24 hrs) in rat at 30 mg/kg, po; type: ADME, organism-based; parameters: time < 24 hr, dose 30 mg/kg, route oral; settings: in vivo

T1 sequence (Q96GD4 whole entry): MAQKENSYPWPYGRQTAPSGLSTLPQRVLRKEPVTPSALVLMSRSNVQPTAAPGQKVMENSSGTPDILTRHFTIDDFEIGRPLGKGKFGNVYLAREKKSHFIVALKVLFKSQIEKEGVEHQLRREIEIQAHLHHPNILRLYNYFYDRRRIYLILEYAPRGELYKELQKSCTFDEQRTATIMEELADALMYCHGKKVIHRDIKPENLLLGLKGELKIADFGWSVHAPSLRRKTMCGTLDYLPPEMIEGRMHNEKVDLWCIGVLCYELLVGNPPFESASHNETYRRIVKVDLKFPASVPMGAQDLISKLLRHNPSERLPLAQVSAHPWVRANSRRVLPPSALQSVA

| IC50 (Aurora kinase B [1]) [nM] | EC50 (Aurora kinase B [2]) [nM] | IC50 (Aurora kinase A) [nM] | AUC(0-t) at 6 h [3] [µM·h] | Papp A→B [4] [×10⁻⁶ cm/s] | SMILES | AUC(0-t) at 24 h [5] [µM·h] |
| --- | --- | --- | --- | --- | --- | --- |
| < 13 | 100 | < 4 | 7.3 | – | Cc1cn2c(-c3cn[nH]c3)cnc2c(Nc2cc(Cc3cccc(F)n3)ns2)n1 | – |
| < 13 | 208 | < 4 | 0.15 | 4.3 | Cc1cn2c(-c3cn[nH]c3)cnc2c(Nc2cc(Cc3cnccn3)ns2)n1 | – |
| < 13 | 475 | < 4 | 3.4 | – | Cc1ccc(Cc2cc(Nc3nc(C)cn4c(-c5cn[nH]c5)cnc34)sn2)nc1 | – |
| < 13 | 182 | < 4 | 1.4 | – | Cc1cn2c(-c3cn[nH]c3)cnc2c(Nc2cc(Cc3ncccc3F)ns2)n1 | – |
| < 13 | 486 | < 4 | 5.5 | – | Cc1cn2c(-c3cn[nH]c3)cnc2c(Nc2cc(Cc3ccc(F)cn3)ns2)n1 | – |
| < 13 | > 1000 | < 4 | – | – | Cc1cn2c(-c3cn[nH]c3)cnc2c(Nc2cc(Cc3cccnc3)ns2)n1 | – |
| < 13 | 250 | < 4 | 1.6 | – | Cc1cn2c(-c3cn[nH]c3)cnc2c(Nc2cc(Cc3ncccc3C)ns2)n1 | – |
| < 13 | 376 | < 4 | 4.6 | – | Cc1ccnc(Cc2cc(Nc3nc(C)cn4c(-c5cn[nH]c5)cnc34)sn2)c1 | – |
| < 13 | 245 | < 4 | 0.1 | – | Cc1cn2c(-c3cn[nH]c3)cnc2c(Nc2cc(Cc3cccc(C(=O)N4CCCCC4)n3)ns2)n1 | – |
| < 13 | 356 | < 4 | 5.5 | – | COc1cccc(Cc2cc(Nc3nc(C)cn4c(-c5cn[nH]c5)cnc34)sn2)n1 | – |
| < 13 | > 1000 | < 4 | – | – | Cc1cn2c(-c3cn[nH]c3)cnc2c(Nc2cc(Cc3ccncc3)ns2)n1 | – |
| < 13 | 170 | < 4 | 3.9 | – | Cc1cn2c(-c3cn[nH]c3)cnc2c(Nc2cc(Cc3nccs3)ns2)n1 | – |
| < 13 | 289 | < 4 | – | – | Cc1cn2c(-c3cn[nH]c3)cnc2c(Nc2cc(Cc3cccc(CN4CCCCC4)n3)ns2)n1 | – |
| < 13 | 559 | < 4 | – | – | Cc1cn2c(-c3cn[nH]c3)cnc2c(Nc2cc(Cc3cccc(CO)n3)ns2)n1 | – |
| < 13 | 487 | < 4 | – | – | Cc1cn2c(-c3cn[nH]c3)cnc2c(Nc2cc(Cn3cccc(C)c3=O)ns2)n1 | – |
| < 13 | 370 | < 4 | – | – | Cc1cn2c(-c3cn[nH]c3)cnc2c(Nc2cc(Cn3ccnc3)ns2)n1 | – |
| < 13 | 88 | < 4 | 7.7 | – | Cc1cccc(Cc2cc(Nc3nc(C)cn4c(-c5cn[nH]c5)cnc34)sn2)n1 | – |
| < 13 | 184 | < 4 | – | – | Cc1cn2c(-c3cn[nH]c3)cnc2c(Nc2cc(Cn3cccn3)ns2)n1 | – |
| < 13 | 530 | < 4 | – | – | Cc1cn2c(-c3cn[nH]c3)cnc2c(Nc2cc(Cn3cccc3)ns2)n1 | – |
| < 13 | 203 | < 4 | 1.8 | – | Cc1cn2c(-c3cn[nH]c3)cnc2c(Nc2cc(Cc3ncccn3)ns2)n1 | – |
| < 13 | 83 | < 4 | 0.45 | – | Cc1cn2c(-c3cn[nH]c3)cnc2c(Nc2cc(C(c3ccccn3)N3CCC(F)CC3)ns2)n1 (racemic) | – |
| < 13 | < 16 | < 4 | 0.02 | – | Cc1cn2c(-c3cn[nH]c3)cnc2c(Nc2cc(C(c3ccccn3)N3CCCC3)ns2)n1 (racemic) | – |
| < 13 | < 16 | < 4 | 0.67 | – | Cc1cn2c(-c3cn[nH]c3)cnc2c(Nc2cc(C(NC3CCCC3)c3ccccn3)ns2)n1 (racemic) | – |
| < 13 | < 16 | < 4 | 0.21 | – | Cc1cn2c(-c3cn[nH]c3)cnc2c(Nc2cc(C(c3ccccn3)N3CCCCC3)ns2)n1 (racemic) | – |

| SMILES | IC50 (Aurora kinase B [1]) [nM] | EC50 (Aurora kinase B [2]) [nM] | IC50 (Aurora kinase A) [nM] | AUC(0-t) at 6 h [3] [µM·h] | Papp A→B [4] [×10⁻⁶ cm/s] | AUC(0-t) at 24 h [5] [µM·h] |
| --- | --- | --- | --- | --- | --- | --- |
| Cc1cn2c(-c3cn[nH]c3)cnc2c(Nc2cc(C(NC(C)(C)C)c3ccccn3)ns2)n1 (racemic) | < 13 | < 16 | < 4 | 1.6 | – | – |
| Cc1cn2c(-c3cn[nH]c3)cnc2c(Nc2cc(C(NC(C)(C)C)c3ccccn3)ns2)n1 (single isomer, unassigned; (-)) | ≤ 13 | 50 | ≤ 4 | – | – | 39 |
